Data as given in patent publication US9844563B2, “Compositions, kits, and methods to induce acquired cytoresistance using stress protein inducers” (FRED HUTCHINSON CANCER RESEARCH CENTER, priority 2014, dated 2017).
“And” between values parts separate entries of the source, which are not always exact repeats. Equal values may be shown once.

Assays:
[1] = Maleate model of AKI (FeS, SnPP, FeS+SnPP); type: in vivo, mice; settings: IV 1 mg FeS and/or 1 μmole SnPP 18 hrs before IP Na maleate 800 mg/Kg; 18 hrs later
Source text: Effects of Fe sucrose (FeS)/tin protoporphyrin (SnPP) on AKI severity. Maleate model of AKI. When injected into rodents, maleate undergoes relatively selective proximal tubule cell uptake via organic anion transporters. Once intracellular accumulation occurs, maleate is a preferred substrate for succinyl-CoA:3-oxoacid CoA transferase. […] Ample levels of CoA are essential for fatty acid “activation”, allowing for their subsequent metabolism through the Krebs cycle, yielding ATP. In the absence of this process, proximal tubule ATP depletion and cell injury result. Additionally, maleate conjugates the sulfhydryl group of glutathione (GSH), culminating in GSH depletion and potential oxidant tubular stress.
The following experiment tested whether FeS, SnPP or combined FeS+SnPP can mitigate this form of acute kidney injury (AKI). Twenty seven mice were subjected to 200 μL IV tail injections of one of the following: 1) vehicle (phosphate buffered saline, PBS; n, 10); 2) 1 mg FeS (American Regent (Shirley, N.Y.; n, 3); 3) 1 μmole SnPP (Frontier Scientific, Logan, Utah; n 7), or FeS+SnPP, n, 7). Eighteen hrs later, all mice received an IP injection of Na maleate (800 mg/Kg; in 500 ul of PBS). […] The severity of kidney injury was assessed by determining plasma blood urea nitrogen (BUN) and plasma creatinine (PCr) concentrations.

[2] = set-up: species or system mice; settings: mouse, in vivo, iv
HO-1 mRNA = test: Renal cortical HO-1 mRNA (RT-PCR) after IV myoglobin, SnPP or both; type: in vivo, mice; settings: 4 hrs post IV injection
Source text: The Glycerol Model of AKI. This is a widely used model of rhabdomyolysis-induced AKI that has been employed worldwide for 50 years. The model was used to test whether prophylactic interventions confer protection against AKI. Basically, the protocol is as follows: Male CD-1 mice (35-45 grams), obtained from Charles River Laboratories, Wilmington, Mass. were studied. Mice were maintained under standard vivarium conditions and generally housed for 1-3 weeks prior to study. The mice were placed in a cylindrical restraining cage, and then were given a tail vein injection of the test substances (see below) or test substance vehicle. The mice were then returned to their cages. Eighteen hours (hrs) later, the mice were briefly anesthetized by isoflurane inhalation, and given an intramuscular injection of hypertonic (50%) glycerol in a dose of 9 ml/Kg body weight. The dose is divided in two, with half injected into the muscle of each of the hind limbs. The mice were then returned to their cages. Eighteen hrs later, the mice were deeply anesthetized with pentobarbital (50-100 mg/Kg), the abdominal cavity was opened through a midline abdominal incision, a blood sample was obtained from the abdominal vena cava and the kidneys were resected. A kidney cross section was obtained and fixed in formalin for subsequent histologic analysis. The terminal blood samples were analyzed for BUN and creatinine, using commercially available assay kits. The remaining kidney tissue was subjected to cortical dissection, and the cortical tissues were then extracted for protein and RNA. The protein samples were saved for analysis of HO-1 levels, and the RNA samples were subjected to RT-PCR to quantify HO-1 mRNA as well as levels of other stress gene mRNAs (e.g. NGAL, haptoglobin, hemopexin, hepicidin).
Myoglobin+SnPP: To 5 mg of dry myoglobin was added 0.9 ml of PBS+0.1 ml of a stock SnPP solution (50 umole/ml). The resulting final concentrations were 5 mg/ml myoglobin+5 umoles/ml of SnPP. The tail vein was injected with 200 ul of this solution, which equals 1 mg myoglobin+1 umole SnPP. […]
Four hr post myoglobin vs myoglobin+SnPP vs SnPP alone experiments. To confirm that the myoglobin+SnPP has a synergistic effect in inducing HO-1 mRNA and HO-1 protein levels, each of the above combinations have been administered alone via tail vein injection. Four hrs later, the mice were sacrificed as noted above and the kidneys were harvested for assessment of HO-1 mRNA and protein levels. For additional information regarding methods, see Zager et al., Am J Physiol Renal Physiol. 2014 Jul. 30. Pii.

Q: What does the source list for `C=Cc1c2[n-]c(c1C)/C=c1\[n-]/c(c(C)c1C=C)=C\c1[n-]c(c(CCC(=O)O)c1C)C=c1[n-]/c(c(C)c1CCC(=O)O)=C\2.[Sn+4]` [SnPP, Sn-protoporphyrin, reference compound]?
A: reductions in BUN/PCr concentrations, maleate-induced AKI [1]: Neither SnPP alone nor FeS alone significantly altered the severity of renal injury; Plasma LDH, Average [2]: 4.51 Absorbance U LDH/ml; HO-1 mRNA induction (HO-1/GAPDH mRNA), Average (HO-1 mRNA; average): 6.94 HO-1/GAPDH mRNA; HO-1 mRNA induction (HO-1/GAPDH mRNA), individual mice (HO-1 mRNA; single animals): 9.72 HO-1/GAPDH mRNA and 8.25 HO-1/GAPDH mRNA and 6.95 HO-1/GAPDH mRNA and 2.85 HO-1/GAPDH mRNA
